The results in this text go back to paper PMC8179358, “An explicitly designed paratope of amyloid-β prevents neuronal apoptosis in vitro and hippocampal damage in rat brain” (Chemical Science, 2020).

*1 amine or outer side, *2 acyl side, *3 side chain or, on linkers, in order; H or OH if unused. Where a SMILES comes first, the peptide text is derived from it. Bridges are numbered along the chain shown (N, C = ends). Roman numbers before positions name the chains, in order. [ ]: non-standard residue; d: D form. X1 = O=C(CCCCC(=O)[*:2])NCCCOCCOCCOCCCNC(=O)CCC(=O)[*:1]; NMeF = CN[C@@H](Cc1ccccc1)C(=O)O; NMeL = CN[C@@H](CC(C)C)C(=O)O; NMeV = CN[C@H](C(=O)O)C(C)C

Usually Kd stands for the concentration at which binding is half-saturated.

Data set [1] deals with SH-SY5Y cells. Briefly: MTT assay, self-toxicity of SP1. The data set is classed as cell-based, human. Conditions: 0.5-10 μM, 24 h. Here is the method: (§1) 1.3. Methods for in vitro cell-based experiments
(§2) The human neuroblastoma cell line SH-SY5Y was obtained from the National Centre for Cell Science (NCCS, Pune, India). The cells were grown in DMEM, and Ham’s F12 nutrient mixture (DMEM/F12; 1:1) supplemented with 10% fetal bovine serum (FBS; Gibco, USA), 50 U/ml penicillin, 100 μg/ml streptomycin and incubated in a humidified atmosphere of 5% CO2 at 37°C. All experiments were carried […]
(§3) Each experiment was performed
(§4) Methylthiazol tetrazolium (MTT) reduction assay was used to measure the viability of cells.10 The SH-SY5Y cells were seeded at a density of 1.5 × 10^4 cells/well in a 96 well plate. To assess self-toxicity, cells […]
(§5) period 20µl of MTT reagent (5mg/ml in DPBS) was added to each well and incubated in a humidified atmosphere of 5% CO2 at 37°C for 4h. Formazan crystals (purple) are formed by the metabolically active cells by cleaving the yellow tetrazolium salt. After the incubation period, the MTT solution was aspirated, and 150µL of dimethyl sulfoxide (DMSO) was added to each well to dissolve the formazan precipitate.
In general terms: Tetrazolium dyes change colour on reduction, which living cells bring about.

Data set [2] has as its system Sprague-Dawley rats. Briefly: Acute and sub-chronic toxicity, mortality, behaviour and body weight. The data set is classed as in vivo. Here is the method: (§6) 24 male Sprague Dawley rats were randomly divided into three groups: control, SP1A, and SP1B. Each group contains 8 animals and administration of SP1was performed for 42 days through a tail vein by the following schedule: Control: Without any treatment.
(§7) Rats were sacrificed after 42 days of injection schedule and blood was collected for hematological and biochemical estimations. For the histopathological study, the liver and kidney were also isolated very carefully and checked for cytoarchitectural changes if any.
(§8) The body weights and volumes of SP1 to be administered were recorded for each animal. Prior to injection, the tail of the animal was warmed by using warm water circulating pad placed under the cage for 5-10 minutes to dilate the veins. A 25-gauge needle was inserted into the vein towards the direction of the head. The needle and syringe were kept parallel to the tail. […]
µg/kg and 500 µg/kg) was injected into the tail slowly. The needle was removed very carefully and gentle compression applied until bleeding was stopped. Animals were returned to their home cage. […]

Data set [3] has as its system Sprague-Dawley rats. Briefly: Sub-chronic toxicity, hematological and biochemical parameters. Format: in vivo. The conditions noted are these: for Basophil / Total Bilirubin / Creatinine / Eosinophil / Monocyte / RBC / WBC / Serum Urea / SGPT / Lymphocyte / SGOT / Neutrophil / Glucose / ALP: iv, 42 days, n = 8; for Basophil: control 0.00±0.00; for Total Bilirubin: control 0.58±0.04; for Creatinine: control 0.73±0.02; for Eosinophil: control 3.12±0.61; for Monocyte: control 3.20±0.99; for RBC: control 4.77±1.54; for WBC: control 6.60±1.20; for Serum Urea: control 26±1.45; for SGPT: control 38.0±1.70; for Lymphocyte: control 38.2±3.25; for SGOT: control 52.0±2.21; for Neutrophil: control 56.6±2.31; for Glucose: control 103.0±1.34; for ALP: control 111.0±3.46. Here is the method:
The tabulated biochemical profile (novel biomarkers of the liver and kidney) corroborates the safety charms of SP1 for further in vivo studies.
as §6, §7, §8
µg/kg and 500 µg/kg) was injected into the tail slowly. The needle was removed very carefully and gentle compression applied until bleeding was stopped. Animals were returned to their home cage.
The biochemical parameters including blood glucose, serum urea, creatinine, total bilirubin, serum glutamic oxaloacetic transaminase (SGOT), serum glutamic pyruvic transaminase (SGPT), and alkaline phosphatase (ALP) were analyzed for sub-chronic toxicity of SP1by using commercially available diagnostic test kits (Crest Biosystems kits, India). Blood parameters like red blood cells, white blood cells, hemoglobin, neutrophil, lymphocyte, eosinophil, monocyte, and basophil were estimated using standard kits by following the manufacturer’s manual.

The next data set addresses T1, Aβ40 (Homo sapiens, UniProt P05067).
T1 construct: 15N labeled (a) Aβ40 (80 μM)
As to the kind of experiment: NMR titration with SVD, residue-specific KD. Conditions: residues R5, L17, V24, K28, and G29 of Aβ40, read-out: dissociation constant (KD). The data set is classed as binding.

Data set [4] deals with SH-SY5Y cells. Briefly: MTT assay, Aβ40 induced cytotoxicity. The data set is classed as cell-based, human. Conditions: Aβ40 10 μM, 24 h. Here is the method:
as §1, §2, §3, §4, §5

The subject of data set [5] is SH-SY5Y cells. As to the kind of experiment: LDH release assay, Aβ40 induced membrane damage. The conditions noted are these: Aβ40 10 μM, 24 h. Format: cell-based, human. Here is the method:
Then, we explored the membrane damage induced by Aβ40 (ref. [45] and [46]) using the lactate dehydrogenase (LDH) assay.
The release of cytosolic enzyme lactate dehydrogenase (LDH) into the culture medium indicates cell death due to the disruption of membrane integrity. Cell deathwas assessed by measuring LDH release in the culture medium by photocolorimetric kit according to the manufacturer’s protocol (Abcam, Cambridge, MA, USA). An increase in the number of lysed cell increases LDH activity in the culture medium proportionately. […]
(§9) Next, 50 µl culture supernatant was collected from each well and added to an assay mixture that was prepared by adding an equal amount of LDH substrate, co-factors, and dye solutions and incubated in the dark for 40mins at 37°C. […] Absorbance was measured at 490 nm with a reference filter of 660nm. […]
(§10) Generation of intracellular reactive oxygen species was measured by a spectrofluorimetric method using peroxide sensitive fluorescent probe 2′,7′-Dichlorofluorescin diacetate (DCFH-DA).11 In brief, SH-SY5Y […]
(§11) or both for 24h. […] Cells were then washed twice with PBS, and fluorescent intensity was measured by using a fluorescence microplate reader (Bio Rad, CA, USA) with an excitation filter of 490 nm and an emission filter of 520 nm.
(LDH leaks from cells whose membrane has failed.)

The subject of data set [6] is SH-SY5Y cells. As to the kind of experiment: Intracellular ROS (DCFH-DA). Conditions: Aβ40 10 μM, 24 h. The data set is classed as cell-based, human.
Description: Condensed or fragmented nuclear bodies characterize the distinctive nature of apoptotic cells. […] Dyshomeostasis of Ca^2+ is also responsible for the increased production of Aβ peptides, by which a degenerative feed-forward cycle is activated, resulting in accelerated apoptosis, synaptic dysfunction, and memory impairment.[49]
The release of cytosolic enzyme lactate dehydrogenase (LDH) into the culture medium indicates cell death due to the disruption of membrane integrity. Cell deathwas assessed by measuring LDH release in the culture medium by photocolorimetric kit according to the manufacturer’s protocol (Abcam, Cambridge, MA, USA). […]
as §9, §10, §11

[7] abbreviates: SP1 500 µg/kg, *P<0.01 vs control.

Take `CC(C)C[C@H](NC(=O)CNC(=O)CCC(=O)NCCCOCCOCCOCCCNC(=O)CCCCC(=O)NCC(=O)N(C)[C@@H](CC(C)C)C(=O)N[C@H](C(=O)N(C)[C@@H](Cc1ccccc1)C(=O)N[C@@H](Cc1ccccc1)C(=O)N[C@@H](C)C(N)=O)C(C)C)C(=O)N(C)[C@H](C(=O)N[C@@H](Cc1ccccc1)C(=O)N(C)[C@@H](Cc1ccccc1)C(=O)N[C@@H](C)C(N)=O)C(C)C` [SP1] (I: GL[NMeV]F[NMeF]A-NH2 / II: G[NMeL]V[NMeF]FA-NH2; linker I:N-II:N via X1): the “cytotoxicity of SP1 alone” value with SH-SY5Y cells [1] is on record as “did not observe any discernible cytotoxicity even at the maximum concentrations (10 μM)”. Also, the “mortality and behavioral patterns” value in the data set with Sprague-Dawley rats [2] (100 and 500 μg kg−1, tail vein, 42 days) is recorded as “causes neither mortality nor abnormal behavioral patterns in rats”. Further, the body weight result with Sprague-Dawley rats [2] (100 and 500 μg kg−1, days 7, 21, and 42, vs control) is on record as “did not observe any significant changes in the rats' body weight”. The “hematological and biochemical parameters, summary” value in the data set with Sprague-Dawley rats [3] (100 μg kg−1, 42 days) is “did not find any severe changes in the hematological and biochemical parameters”. Besides, the “hematological and biochemical parameters, summary” value in the data set with Sprague-Dawley rats [3] (500 μg kg−1, 42 days) is “Almost similar observations in rats treated with SP1 (500 μg kg^−1) were revealed, except for monocyte and SGOT levels”. In the data set with Sprague-Dawley rats [3] (SP1 100 µg/kg), the Basophil worked out at 0.00±0.00%, the “Total Bilirubin” value was 0.54 ± 0.09 mg/dL, the Creatinine was determined as 0.69 ± 0.05 mg/dL and the Eosinophil was 2.62±0.82%. In addition, in the data set with Sprague-Dawley rats [3] (SP1 100 µg/kg), the Monocyte was 3.8±1.08%, the RBC is given as 5.20±1.23 10^6/mm3, the WBC is 5.80±1.34 10^3/mm3 and the “Serum Urea” value was 32.0 ± 1.83 mg/dL. In the data set on Sprague-Dawley rats [3] (SP1 100 µg/kg), the SGPT was found to be 44.0±1.84 IU/L, the Lymphocyte is given as 42.3±2.92%, the SGOT was 55.0±2.94 IU/L and the Neutrophil came out at 58.00±2.54%. Besides, in the data set on Sprague-Dawley rats [3] (SP1 100 µg/kg), the Glucose stood at 110.0 ± 1.36 mg/dL and the ALP came out at 120.0±3.68 IU/L. In the data set on Sprague-Dawley rats [3] (SP1 500 µg/kg), the Basophil is listed as 0.00±0.00%, the “Total Bilirubin” value was determined as 0.72 ± 0.06 mg/dL, the Creatinine came out at 0.86 ± 0.03 mg/dL and the Eosinophil turned out to be 2.72±0.53%. Further, in the data set on Sprague-Dawley rats [3] (SP1 500 µg/kg), the RBC is 5.51±1.38 10^6/mm3, the WBC is recorded as 6.21±1.15 10^3/mm3, the “Serum Urea” value came out at 29.0 ± 1.66 mg/dL and the SGPT came out at 40.32±1.63 IU/L. In the data set with Sprague-Dawley rats [3] (SP1 500 µg/kg), this compound came in with a Lymphocyte of 40.5±3.12%, a Neutrophil of 62.10±2.42%, a Glucose of 105.0 ± 1.28 mg/dL and an ALP of 116.0±2.15 IU/L. In the data set with Sprague-Dawley rats [3] (setting [7]), this compound showed a Monocyte of 5.20±1.24% and an SGOT of 64.2±2.56 IU/L. Also, at Aβ40, the Kd was around 200 µM.
“Aβ40: commercially available Aβ40 peptide”: the “cell population after Aβ40 alone” value in the data set with SH-SY5Y cells [4] is given as “significant reduction in the cell population”. The “LDH release by Aβ40 alone” value in the data set on SH-SY5Y cells [5] is “released a significant amount of cytosolic LDH”. In addition, in the data set on SH-SY5Y cells [6], the “ROS marker intensity, Aβ40 alone” value is on record as “increased in the presence of Aβ40 compared to untreated cells”.
